System: HEK293 cells
Assay: Viability of HEK293 cells in culture with test compound
Assay type: cell-based, human
Set-up: key: ns: results are not shown due to poor viability of HEK293 cells in culture at the indicated compound concentration
Settings: 10^−3 dilution of working concentration of Table 4 (D 0.1 millimolar); 6 days of culture

Structure (SMILES): O=P(O)(O)C(O)(Cn1ccnc1)P(=O)(O)O [Compound D, zolendronic acid]
- Viability of HEK293 cells in culture: ns^2

Source: patent US20070032443A1, “Therapy for Alzheimer's disease” (priority 2005, published 2007)
